Patent publication US20090317371A1, “Method, Composition, and Device, for the Treatment of Amylase Malfunctions / Inactivity in Association with Saccharides (Mainly Polysaccharides) Based Diseases” (priority 2008, published 2009)

Assay: In-vitro testing of glucose units in a glucose solution before and after mixing with the agent
Assay type: biochemical
Details: 10 mls of 10% glucose solution (more than 600 mg/dl before)
Protocol: Our methods were: In-vitro testing to determine glucose units in a glucose solution before and after mixing with Amzylite against other known hypoglaycaemic agents (metformin, sulfonylurea, etc) including insulin. 10 mls of 10% concentrated glucose solution tested for glucose concentration using glucose oxidase and or hexokinase (glucometers can also be used). […] One or two capsule of Amzylite was added to the glucose solution. In-vivo: 141 type I and type II diabetics with diabetes neuropathy, in addition to 9 diabetics with renal incompetency, 15 diabetics with chronic wounds to extremities, 2 diabetics had progressive gas gangrene, all patients had neuropathy with impaired sensations to distal extremities and one none diabetic with renal failure were identified. 31 out of 141 were excluded for incomplete records. 8 self discharged. 128 classified into 4 groups: 33 on insulin therapy; 20 on insulin and oral hypoglycaemic agents, 58 on only oral hypoglycaemic therapy, 16 on diet control only. 9 with high creatinine levels, 15 with chronic wounds, 2 had gas gangrene to distal extremities and one non diabetic had renal incompetency and was on dialysis. Laboratory tests were determined before and after starting Amzylite. No placebo was given.
In-vitro testing to determine glucose units in a glucose solution before and after mixing with Amzylite against other known hypoglaycaemic agents (metformin, sulfonylurea, etc) including insulin. 10 mls of 10% concentrated glucose solution tested for glucose concentration using glucose oxidase and or hexokinase (glucometers can also be used). […] One capsule of Amzylite added to the glucose solution. For In-vivo study to determine the effectiveness of Amzylite as treatment for D.M. 141 patients with type I and type II D.M were treated with Amzylite. 31 patients were excluded for incomplete records. 8 patients' self withdrawn. […] Fasting and 2 hours postprandial blood glucose levels (HbA1c checked in some but not all patients) were determined before starting Amzylite. […] Saliva enzymes function tests were determined for disaccharides and polysaccharides in all patients. […] Improvement in patients' symptoms, daily glucose readings (fasting/2 hour postprandial) and HbA1c were set up as target and evaluation criteria. […] Changes were also determined by […]. 1—Improvement with complete recovery, 2—Significant improvement of symptoms and readings (range 70-170 mg/dl and below 200 mg/dl), 3—Improved symptoms but no change on readings, 4—Improved readings but no improvement on symptoms, 5—No change on symptoms or readings, 6—Higher or lower glucose readings. […]

[1] = one capsule of Amzylite, second study
[2] = one or two capsules of Amzylite, first study

Compound | In vitro glucose readings after mixing [1] | In vitro glucose readings after mixing [2]
insulin | No changes | No changes
CN(C)C(=N)N=C(N)N [metformin] | No changes | No changes
